# Laboratory results published in patent publication US20220332774A1, “THERAPEUTIC MITOCHONDRIAL PEPTIDES” (priority 2019, published 2022).
# Columns and labels:
# H4-IIE Cells = assay: Glucose production in cultured H4-IIE cells; type: cell-based, rat; details: glucose concentration in medium relative to untreated cells; 5 μM peptide, 24 h
# Procedure, shortened: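 Rat H4-IIE hepatoma cells primed overnight in glucose-free DMEM with 2 mM pyruvate and 10 mM lactate, then treated 24 h at 37 °C with 5 μM peptide (0.1% DMSO; concentration assumes ~2000 Da). Medium glucose measured colorimetrically at 570 nm. Values are percent of untreated-cell glucose production; 0.5-1 nM insulin served as inhibitor reference.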
# 3T3-L1 Mouse Adipocytes = assay: Free fatty acid levels in cultured 3T3-L1 mouse adipocytes (isoproterenol stimulated); type: cell-based; details: free fatty acid in medium; 5 μM peptide, 20-22 h pre-incubation then 3 h with 0.1 nM isoproterenol; isoproterenol alone = 100%
# Procedure, shortened: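 3T3-L1 cells differentiated 12 days, insulin withdrawn, then peptides added on day 13 at 5 μM (0.1% DMSO) for 20-22 h at 37° C. After 3 h in assay buffer, medium free fatty acids read at 540 nm. Values expressed as percent of 0.1 nM isoproterenol-alone control.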
# C2C12 Cells = assay: Glucose utilization in cultured C2C12 cells (myotubes); type: cell-based, mouse; details: glucose concentration in medium relative to untreated cells; 5 μM peptide, 22 h
# Procedure, shortened: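 Differentiated mouse myotubes (5 days in 2% horse serum) serum-starved 5 h, then treated 22 h at 37 °C with peptide at 5 μM final (0.1% DMSO) in low-glucose (1 g/L) DMEM. Glucose remaining in medium measured colorimetrically at 570 nm. Expressed as percent of untreated control, from 2–3 experiments in triplicate.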
Substance,Percent of Control Activity (H4-IIE Cells) [%],Percent of Isoproterenol Control Activity (3T3-L1 Mouse Adipocytes) [%],Percent of Control Activity (C2C12 Cells) [%]
130 (MTAPVKLQGVWM) [compound 130],97,110,103
131 (MTELLTPNWTNLSPY) [compound 131],97,110,107
133 (MTLGHNMIYLHTS) [compound 133],91,107,100
134 (MTNIFGVWAR) [compound 134],92,111,101
135 (MTNPENQNERKSVRFIHCPHNP) [compound 135],93,127,109
136 (MTNTLNSIHPPLP) [compound 136],94,124,99
137 (MTSLHNSFYSKDTSLRTPLMTP) [compound 137],96,115,116
138 (MTSPKIQNNNTPDHTANNQY) [compound 138],92,111,115
139 (MTWPTEQVTLGMTAQSYS) [compound 139],97,91,100
140 (MTYSPEQSQLQYMHQQTMFNQ) [compound 140],97,100,91
141 (MVEGWLLYLLVSMG) [compound 141],103,96,97
142 (MVEVGYNVVRVV) [compound 142],103,97,95
143 (MVGYLIPVWVLAIVCSDMLKPLS) [compound 143],111,107,98
144 (MVIICFEVSLISHCWVVISRLLM) [compound 144],105,96,105
145 (MVKPHLQNASI) [compound 145],102,94,103
146 (MVLEFGLVGYFLLGGGSGWV) [compound 146],99,97,106
147 (MVLFLLGMVG) [compound 147],98,99,107
148 (MVLNLRVHRLRRTNLQLLHTSPIIP) [compound 148],109,103,103
149 (MVLSSPPIFRMSCSLL) [compound 149],97,100,100
150 (MVLWWFGGSG) [compound 150],87,94,102
151 (MVNGRRTSVGV) [compound 151],90,81,95
152 (MVRMLLVQWW) [compound 152],89,105,110

Substance,Percent of Control Activity (H4-IIE Cells) [%],Percent of Isoproterenol Control Activity (3T3-L1 Mouse Adipocytes) [%],Percent of Control Activity (C2C12 Cells) [%]
153 (MVSMMTSMGM) [compound 153],91,93,104
154 (MVSSGDWYSWCE) [compound 154],98,89,107
155 (MVVCMVITFIWSCTKIFGA) [compound 155],95,97,107
156 (MVVHWMSGVGLPWLWGVGV) [compound 156],106,97,85
157 (MVVKGPLSEGGHPWGREGIWL) [compound 157],109,106,102
158 (MWEEAGRMSEGCLG) [compound 158],127,96,106
159 (MWGVSDMLVFLEV) [compound 159],111,100,102
160 (MWLGVGLGWVG) [compound 160],102,102,94
161 (MWLIEEYAMSDF) [compound 161],114,99,103
162 (MWLVLWLWML) [compound 162],113,106,103
163 (MWMPPTLPHIR) [compound 163],110,87,105
164 (MWNDLLQCSEP) [compound 164],109,116,102
165 (MWRVLGALWW) [compound 165],125,108,95
166 (MWSHPSHHSTINITNKWLL) [compound 166],105,96,105
168 (MYCNWDCSGE) [compound 168],120,108,103
169 (MYLNGTCSAS) [compound 169],109,110,107
170 (MYNYAKAPTL) [compound 170],109,95,106
171 (MYRHLQQTLMKATK) [compound 171],100,104,110
172 (MYTNKQCSTSNYY) [compound 172],111,94,106
173 (MYTPTNNVQPVTTTNQRP) [compound 173],103,114,95
174 (MYYSDGYWGVSWGMGV) [compound 174],110,105,93
176 (MKNIEAPLAW) [compound 176],108,95,103
